We go through 25 molecules from patent US20070049593A1 (priority 2004, published 2007).

Where a name gives a salt, the structure may show the parent alone. Read-outs that look alike come from different tables or passages of the source. A value given as a limit tells only on which side of the number the result lay.

This test addresses T1, HCV polymerase (Hepatitis C virus genotype 1b, UniProt P26663).
T1 construct: a region encoding NS5B (J Virol 1991 March, 65(3), 1105-13, 544 amino acids after deletion of 47 amino acids on the C-terminal); 6xHis (C); made in house; host or cells: Escherichia coli
Nature of the test: biochemical. More on the design: species or system HCV BK strain. The essentials:
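His-tagged NS5B (BK strain, 47-aa C-terminal deletion, E. coli-expressed) at 0.5 μg/ml copied 5 μg/ml run-off RNA bearing the HCV 3′ UTR with 2 μM UTP plus [3H]UTP, 50 μM ATP/GTP, in pH 7.5 Tris with 5 mM MgCl2, 25 °C, 90 min. TCA-precipitated RNA was counted and IC50 calculated.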

T1 sequence (P26663 2420-2963): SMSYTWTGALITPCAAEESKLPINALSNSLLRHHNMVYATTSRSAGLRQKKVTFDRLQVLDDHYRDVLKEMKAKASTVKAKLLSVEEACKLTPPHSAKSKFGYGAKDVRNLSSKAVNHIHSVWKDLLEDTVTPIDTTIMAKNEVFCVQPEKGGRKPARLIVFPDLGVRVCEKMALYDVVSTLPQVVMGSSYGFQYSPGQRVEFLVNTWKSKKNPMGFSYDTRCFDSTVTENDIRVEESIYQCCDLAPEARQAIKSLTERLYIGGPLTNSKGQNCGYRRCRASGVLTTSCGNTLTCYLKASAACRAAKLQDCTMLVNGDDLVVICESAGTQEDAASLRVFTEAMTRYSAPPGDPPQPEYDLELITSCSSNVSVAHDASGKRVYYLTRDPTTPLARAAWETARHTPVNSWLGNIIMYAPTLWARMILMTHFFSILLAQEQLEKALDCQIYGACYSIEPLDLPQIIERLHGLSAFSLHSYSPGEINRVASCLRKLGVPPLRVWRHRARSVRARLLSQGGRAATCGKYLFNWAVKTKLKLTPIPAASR

Take `O=C(O)c1ccc2c(C3CCCCC3)c3n(c2c1)CCN(CCN1CCCCCCC1)c1cc(Cl)ccc1-3` [Example 1-277, 5-[2-(azocan-1-yl)ethyl]-3-chloro-13-cyclohexyl-6,7-dihydro-5H-benzo[5,6][1,4]diazepino[7,1-a]indole-10-carboxylic acid dihydrochloride]: the half-inhibitory concentration (IC50) is < 100 nM.

Consider `CCOc1ccc2c(c1)N(CCN1CCC[C@@H](CCOC)C1)CCn1c-2c(C2CCCCC2)c2ccc(C(=O)O)cc21` [Example 1-427, 13-cyclohexyl-3-ethoxy-5-{2-[(S)-3-(2-methoxyethyl)piperidin-1-yl]ethyl}-6,7-dihydro-5H-benzo[5,6][1,4]diazepino[7,1-a]indole-10-carboxylic acid dihydrochloride], for which the half-inhibitory concentration (IC50) was < 100 nM.

In the case of `COCC1CCCCN1CCCN1CCn2c(c(C3CCCCC3)c3ccc(C(=O)O)cc32)-c2ccc(Cl)cc21` (stereo not shown) [Example 1-355, 3-chloro-13-cyclohexyl-5-[3-(2-methoxymethylpiperidin-1-yl)propyl]-6,7-dihydro-5H-benzo[5,6][1,4]diazepino[7,1-a]indole-10-carboxylic acid dihydrochloride], the IC50 is < 100 nM.

Regarding `O=C(O)c1ccc2c(C3CCCCC3)c3n(c2c1)CCOc1cc(OC2CCCNC2)ccc1-3` (stereo not shown) [Example 2-46, 12-cyclohexyl-3-(piperidin-3-yloxy)-6,7-dihydro-5-oxa-7a-azadibenzo[a,e]azulene-9-carboxylic acid monohydrochloride], the 50% inhibitory concentration (IC50) is < 100 nM.

On to `COC1CCCN(CCN2CCn3c(c(C4CCCCC4)c4ccc(C(=O)O)cc43)-c3ccc(Cl)cc32)C1` (stereo not shown) [Example 1-265, 3-chloro-13-cyclohexyl-5-[2-(3-methoxypiperidin-1-yl)ethyl]-6,7-dihydro-5H-benzo[5,6][1,4]diazepino[7,1-a]indole-10-carboxylic acid dihydrochloride], for which the IC50 is < 100 nM.

Turning to `CN1CCC(CCOc2ccc3c(c2)N(C)CCn2c-3c(C3CCCCC3)c3ccc(C(=O)O)cc32)CC1` [Example 1-439, 13-cyclohexyl-5-methyl-3-[2-(1-methylpiperidin-4-yl)ethoxy]-6,7-dihydro-5H-benzo[5,6][1,4]diazepino[7,1-a]indole-10-carboxylic acid dihydrochloride], the 50% inhibitory concentration (IC50) is < 100 nM.

As for `Cc1ccc2c(c1)N(CCN1CCCCCC1)CCn1c-2c(C2CCCCC2)c2ccc(C(=O)O)cc21` [Example 1-218, 5-[2-(azepan-1-yl)ethyl]-13-cyclohexyl-3-methyl-6,7-dihydro-5H-benzo[5,6][1,4]diazepino[7,1-a]indole-10-carboxylic acid dihydrochloride], the IC50 was < 100 nM.

Take `CCOC(=O)N1CCN(C(=O)CN2CCn3c(c(C4CCCCC4)c4ccc(C(=O)O)cc43)-c3ccccc32)CC1` [Example 1-46, 13-cyclohexyl-5-[2-(4-ethoxycarbonylpiperazin-1-yl)-2-oxoethyl]-6,7-dihydro-5H-benzo[5,6][1,4]diazepino[7,1-a]indole-10-carboxylic acid monohydrochloride]: the half-inhibitory concentration (IC50) was < 100 nM.

In the case of `O=C(CN1CCCCC1)Nc1ccccc1-c1cccc2c1OCCn1c-2c(C2CCCCC2)c2ccc(C(=O)O)cc21` [Example 2-549, 12-cyclohexyl-4-{2-[2-(piperidin-1-yl)acetylamino]phenyl}-6,7-dihydro-5-oxa-7a-azadibenzo[a,e]azulene-9-carboxylic acid], the concentration for half-maximal inhibition (IC50) was < 100 nM.

For `O=C(O)c1ccc2c(C3CCCCC3)c3n(c2c1)CCN(CCN1CCCOCC1)c1cc(F)ccc1-3` [Example 1-170, 13-cyclohexyl-3-fluoro-5-[2-(1,4-oxazepan-4-yl)ethyl]-6,7-dihydro-5H-benzo[5,6][1,4]diazepino[7,1-a]indole-10-carboxylic acid dihydrochloride], the 50% inhibitory concentration (IC50) was < 100 nM.

Turning to `CC[C@H]1CCCN(CCN2CCn3c(c(C4CCCCC4)c4ccc(C(=O)O)cc43)-c3ccc(C)cc32)C1` [Example 1-422, 13-cyclohexyl-5-[2-((S)-3-ethylpiperidin-1-yl)ethyl]-3-methyl-6,7-dihydro-5H-benzo[5,6][1,4]diazepino[7,1-a]indole-10-carboxylic acid dihydrochloride], the 50% inhibitory concentration (IC50) is < 100 nM.

Consider `CCN(CCCN1CCn2c(c(C3CCCCC3)c3ccc(C(=O)O)cc32)-c2ccc(Cl)cc21)CCOC` [Example 1-431, 3-chloro-13-cyclohexyl-5-{3-[N-ethyl-N-(2-methoxyethyl)amino]propyl}-6,7-dihydro-5H-benzo[5,6][1,4]diazepino[7,1-a]indole-10-carboxylic acid dihydrochloride], for which the IC50 was < 100 nM.

`CCN1CCCCC1CCN1CCn2c(c(C3CCCCC3)c3ccc(C(=O)O)cc32)-c2ccc(C)cc21` (stereo not shown) [Example 1-288, 13-cyclohexyl-5-[2-(1-ethylpiperidin-2-yl)ethyl]-3-methyl-6,7-dihydro-5H-benzo[5,6][1,4]diazepino[7,1-a]indole-10-carboxylic acid dihydrochloride]: the IC50 is < 100 nM.

Take `CCOC(=O)N1CCN(CCN2CCn3c(c(C4CCCCC4)c4ccc(C(=O)O)cc43)-c3ccccc32)CC1` [Example 1-97, 13-cyclohexyl-5-[2-(4-ethoxycarbonylpiperazin-1-yl)ethyl]-6,7-dihydro-5H-benzo[5,6][1,4]diazepino[7,1-a]indole-10-carboxylic acid dihydrochloride]: the IC50 is < 100 nM.

Take `O=C(O)/C=C/c1ccc(NC(=O)C2(NC(=O)c3ccc4c(C5CCCCC5)c5n(c4c3)CCOc3ccccc3-5)CCNCC2)cc1` [Example 2-174, (E)-3-[4-({4-[(12-cyclohexyl-6,7-dihydro-5-oxa-7a-azadibenzo[a,e]azulene-9-carbonyl)amino]piperidine-4-carbonyl}amino)phenyl]acrylic acid]: the half-inhibitory concentration (IC50) was < 100 nM.

For `COc1ccc2c(c1)OCCn1c-2c(C2CCCCC2)c2ccc(C(=O)NC(C)(C)c3ncc(-c4ccc(C(N)=O)cc4)[nH]3)cc21` [Example 2-546, N-{1-[5-(4-carbamoylphenyl)-1H-imidazol-2-yl]-1-methylethyl}-12-cyclohexyl-3-methoxy-6,7-dihydro-5-oxa-7a-azadibenzo[a,e]azulene-9-carboxamide], the half-inhibitory concentration (IC50) was < 100 nM.

With `CN1CCC(N(C)CCN2CCn3c(c(C4CCCCC4)c4ccc(C(=O)O)cc43)-c3ccccc32)C1` (stereo not shown) [Example 1-284, 13-cyclohexyl-5-{2-[N-methyl-N-(1-methylpyrrolidin-3-yl)amino]ethyl}-6,7-dihydro-5H-benzo[5,6][1,4]diazepino[7,1-a]indole-10-carboxylic acid dihydrochloride], the half-maximal inhibitory concentration (IC50) is < 100 nM.

As for `O=C(O)c1ccc2c(C3CCCCC3)c3n(c2c1)CCOc1cc(OCCN2CCOC2=O)ccc1-3` [Example 2-38, 12-cyclohexyl-3-[2-(2-oxooxazolidin-3-yl)ethoxy]-6,7-dihydro-5-oxa-7a-azadibenzo[a,e]azulene-9-carboxylic acid], the half-maximal inhibitory concentration (IC50) was < 100 nM.

In the case of `O=C(O)c1ccc2c(C3CCCCC3)c3n(c2c1)CCN(CCN1CCN(C(=O)c2ccccc2)CC1)c1ccccc1-3` [Example 1-88, 5-[2-(4-benzoylpiperazin-1-yl)ethyl]-13-cyclohexyl-6,7-dihydro-5H-benzo[5,6][1,4]diazepino[7,1-a]indole-10-carboxylic acid dihydrochloride], the IC50 is < 100 nM.

Turning to `CS(=O)(=O)N1CCN(c2ccc(N3CCCC3=O)cc2COc2ccc3c(c2)OCCn2c-3c(C3CCCCC3)c3ccc(C(=O)O)nc32)CC1` [Example 7-7, 12-cyclohexyl-3-[2-(4-methanesulfonylpiperazin-1-yl)-5-(2-oxopyrrolidin-1-yl)benzyloxy]-6,7-dihydro-5-oxa-7a,8-diazadibenzo[a,e]azulene-9-carboxylic acid dihydrochloride], the IC50 is < 100 nM.

As for `CS(=O)(=O)N1CCC(CCN2CCn3c(c(C4CCCCC4)c4ccc(C(=O)O)cc43)-c3ccccc32)CC1` [Example 1-94, 13-cyclohexyl-5-[2-(1-methanesulfonylpiperidin-4-yl)ethyl]-6,7-dihydro-5H-benzo[5,6][1,4]diazepino[7,1-a]indole-10-carboxylic acid monohydrochloride], the half-maximal inhibitory concentration (IC50) is < 100 nM.

Take `CC1CCCN1CCN1CCn2c(c(C3CCCCC3)c3ccc(C(=O)O)cc32)-c2ccccc21` (stereo not shown) [Example 1-208, 13-cyclohexyl-5-[2-(2-methylpyrrolidin-1-yl)ethyl]-6,7-dihydro-5H-benzo[5,6][1,4]diazepino[7,1-a]indole-10-carboxylic acid dihydrochloride]: the IC50 is < 100 nM.

As for `CCCC1CCCN(CCN2CCn3c(c(C4CCCCC4)c4ccc(C(=O)O)cc43)-c3ccc(C)cc32)C1` (stereo not shown) [Example 1-268, 13-cyclohexyl-3-methyl-5-[2-(3-propylpiperidin-1-yl)ethyl]-6,7-dihydro-5H-benzo[5,6][1,4]diazepino[7,1-a]indole-10-carboxylic acid dihydrochloride], the IC50 (25° C., 90 min, [5,6-3H]UTP incorporation into RNA, read-out: HCV polymerase inhibitory activity IC50) is < 100 nM.

As to `CN1CCn2c(c(C3CCCCC3)c3ccc(C(=O)NC4(C(=O)Nc5ccc(C=CC(=O)O)cc5)CCC4)cc32)-c2ccccc2C1` [Example 11-8, (E)-3-[4-({1-[(14-cyclohexyl-6-methyl-5,6,7,8-tetrahydrobenzo[6,7][1,4]diazocino[8,1-a]indole-11-carbonyl)amino]cyclobutanecarbonyl}amino)phenyl]acrylic acid monohydrochloride], the 50% inhibitory concentration (IC50) was < 100 nM.

Turning to `COc1ccc2c(c1)CNCCn1c-2c(C2CCCCC2)c2ccc(C(=O)O)cc21` [Example 11-5, 14-cyclohexyl-3-methoxy-5,6,7,8-tetrahydrobenzo[6,7][1,4]diazocino[8,1-a]indole-11-carboxylic acid monohydrochloride], the half-inhibitory concentration (IC50) was < 100 nM.

One may read the IC50 as the point on the concentration scale where inhibition reaches its midpoint.
